Entries after “also recorded” stand apart in the source; their conditions may differ.
Key:
[1] = tested on: nppb::luciferase reporter; assay: nppb::luciferase reporter chemical screen in 2057del2 plakoglobin zebrafish embryos; format: in vivo; settings: 72 hpf, 3 μM in the well between 48 and 72 hpf
Method: Chemical screening: Chemicals were dissolved in DMSO (Sigma-Aldrich, St. Louis, Mo., USA). Embryos (double homozygous for the 2057del2 plakoglobin mutation and the nppb::luciferase reporter) were arrayed in 96 well plates in HEPES-buffered E3 medium and small molecules were pin-transferred (200 n1) from arrayed chemical libraries. Positive (untreated wild type nppb::luciferase embryos) and negative controls (untreated 2057del2 plakoglobin/nppb::luciferase fish) were included in each plate. […] Each set of compounds was tested in duplicate to improve the discriminatory power of the assay. After being evaluated for viability, an equal volume of long half-life luciferase reagent (Promega Steady Glo™) was added to each well. The plate was then incubated in the dark for 60 min and activities were measured with a Victor 3™ luminometer (Perkin-Elmer). Each measurement was performed in duplicate and results were normalized to the number of fish in the well. Follow-up chemical treatments were performed in HEPES-buffered E3 medium in petri dishes.

[2] = tested on: neonatal rat ventricular myocytes expressing 2057del2 plakoglobin; assay: TUNEL assay of myocyte apoptosis; format: cell-based; settings: cells expressing 2057del2 plakoglobin, SB216763
Source text: (§1) TUNEL assay: Apoptotic cells in cultures were detected by terminal deoxynucleotidyl transferase-mediated biotinylated UTP nick end-labeling (TUNEL) assay using the ApopTag™ Fluorescein Direct in Situ Apoptosis Detection Kit (Millipore) as previously described.^9 Nuclei were stained with DAPI, and TUNEL-positive and total nuclei were counted under a laser scanning confocal microscope in 5 fields per chamber.
as §1, with “ApopTag” for “ApopTag™”, “KitTM” for “Kit”, “according to the manufacturer's instructions.” for “as previously described.^9”, “DAPI;” for “DAPI, and”, “chamber or silicone membrane in stretch experiments.” for “chamber.”

[3] = tested on: neonatal rat ventricular myocytes expressing 2057del2 plakoglobin; assay: INa and IK1 current density in neonatal rat ventricular myocytes; format: cell-based
Method: INa activation and inactivation were measured by whole-cell voltage-clamp according to standard protocols (32,33). Cells were held at a membrane potential of −80 mV after which pulses between −120 and +50 mV were applied in 5 mV steps each with a duration of 250 ms. Inactivation was measured from membrane potentials between −120 mV and +50 mV at maximal activation (26,33). In view of the small size of zebrafish myocytes (cell capacitance of 6.7±2.6pF; n=47) it was not necessary to reduce extracellular [Na+] to achieve voltage control; extracellular [Na+] was reduced to 50 mM in studies of neonatal rat ventricular myocytes Access resistance of the patch electrodes was <7 MΩ. Measurements showing incomplete control of membrane potential were eliminated from analysis. The chemical composition of the external and pipette solutions is described in supplemental information.
The inward rectifier current IK1 was measured using the protocol described by Dobrev et al. and Nemtsas et al. (34,35). Ramp clamps of 1400 ms duration were applied between −120 and +20 mV. After each clamp, external solution containing Ba2+(1 mM) was applied via a large pore pipette placed adjacent to the clamped cell. IK1 was defined as the total current minus the Ba2+-insensitive current (33). Subtraction of the two currents was performed using a MatLab script. […]

[4] = tested on: neonatal rat ventricular myocytes expressing 2057del2 plakoglobin; assay: Cytokine expression in conditioned culture media; format: cell-based; settings: transfected cells
Method: (§2) Cytokine expression: Conditioned culture media (after 24 or 48 hr) from control cells and cells expressing 2057del2-plakoglobin in the presence or absence of SB216763 (5 μM, 24 hr) were collected, mixed with a cocktail of biotinylated detection antibodies and incubated with nitro-cellulose membranes spotted in duplicate with control and capture antibodies (R&D Systems). Chemiluminescent signal produced at each spot corresponded to the amount of cytokine bound. Conditioned media from control, un-transfected cultures were assayed for cytokine expression for control purposes.
as §2, with “from” for “from control cells and”, “2057del2 plakoglobin” for “2057del2-plakoglobin”, “non-transfected” for “control, un-transfected”, “as controls.” for “for control purposes.”

SMILES: Cn1cc(C2=C(c3ccc(Cl)cc3Cl)C(=O)NC2=O)c2ccccc21 [SB216763]
- nppb expression / nppb::luciferase activity [1]: normalizer of the nppb response; also recorded: reduced nppb expression
- nppb expression / nppb::luciferase activity ([1]; listed as SB2): reduced nppb expression
- nppb expression / nppb::luciferase activity ([1]; listed as SB216736): normalized nppb::luciferase activity
- Myocyte apoptosis (TUNEL-positive nuclei) [2]: dramatically reduced the number of TUNEL positive nuclei; also recorded: significantly reduced the mean apoptosis index
- Myocyte apoptosis (TUNEL-positive nuclei) ([2]; listed as SAB216763): totally abolished
- Reduced INa and IK1 current densities in cells expressing mutant plakoglobin [3]: normalized the reduced current densities
- Cytokine levels in culture medium, 48 hr exposure ([4]; 5 μM, 48 hr): clear reduction in cytokine levels; also recorded: restored the cytokine profile to control levels
- Cytokine profile in culture medium, 24 hr exposure ([4]; 24 hr): no apparent effect on cytokines; also recorded: had no apparent effect on the cytokine profile
